No end group written: not given here.
Columns and labels:
freely-feeding rats = conditions: central administration, 4 hour time period; cited from earlier work
rats [1] = conditions: central administration at the onset of the normal sleep period; cited from earlier work
rat Orexin-1 receptor = biological target: T1, rat Orexin-1 receptor (Rattus norvegicus, UniProt P56718); test: FLIPR antagonist affinity at cloned rat OX1 receptor (RBL cells); format: cell-based; conditions: read-out: fpKi
T1 construct: expressed in transfected cells
T1 sequence (P56718 1-416): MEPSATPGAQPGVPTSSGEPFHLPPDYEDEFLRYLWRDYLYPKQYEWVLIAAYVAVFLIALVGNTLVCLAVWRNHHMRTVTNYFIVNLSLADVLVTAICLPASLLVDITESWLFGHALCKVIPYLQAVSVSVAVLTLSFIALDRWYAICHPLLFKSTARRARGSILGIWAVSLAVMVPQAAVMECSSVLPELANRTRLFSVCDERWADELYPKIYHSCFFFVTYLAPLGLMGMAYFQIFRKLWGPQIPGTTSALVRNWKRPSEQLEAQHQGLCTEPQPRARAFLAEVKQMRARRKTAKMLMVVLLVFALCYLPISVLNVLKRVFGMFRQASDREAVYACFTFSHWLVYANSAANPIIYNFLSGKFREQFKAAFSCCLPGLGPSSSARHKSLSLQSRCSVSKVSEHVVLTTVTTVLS
Excerpt: (§1) Determination of Antagonist Affinity at Human Orexin-1 and 2 Receptors Using FLIPR
(§2) Adherent Chinese Hamster Ovary (CHO) cells, stably expressing the recombinant human Orexin-1 or human Orexin-2 receptors or Rat Basophilic Leukaemia Cells (RBL) stably expressing recombinant rat Orexin-1 or rat Orexin-2 receptors were maintained in culture in Alpha Minimum Essential Medium (Gibco/Invitrogen, cat. no.; 22571-020), supplemented with 10% decomplemented foetal bovine serum (Life Technologies, cat. no. 10106-078) and 400 μg/mL Geneticin G418 (Calbiochem, cat. no. 345810). Cells were grown as monolayers under 95%:5% air:CO2 at 37° C. […]
(§3) Compounds of the invention were tested in a final assay concentration range from 1.66×10^−5M to 1.58×10^−11 M. Compounds of the invention were dissolved in dimethylsulfoxide (DMSO) at a stock concentration of 10 mM. […] This final concentration of hOrexin A was equivalent to the calculated EC80 for hOrexinA agonist potency in this test system. […]
(§4) The loaded cells were then incubated for 10 min at 37° C. with test compound. The plates were then placed into a FLIPR™ (Molecular Devices, UK) to monitor cell fluorescence (λex=488 nm, λEM=540 nm) (Sullivan E, Tucker E M, Dale I L. Measurement of [Ca^2+]i using the fluometric imaging plate reader (FLIPR). In: Lambert DG (ed.), Calcium Signaling Protocols. New Jersey: Humana Press, 1999, 125-136). […]

rat Orexin-2 receptor = biological target: T2, rat Orexin-2 receptor (Rattus norvegicus, UniProt P56719); test: FLIPR antagonist affinity at cloned rat OX2 receptor (RBL cells); format: cell-based; conditions: read-out: fpKi
T2 construct: expressed in transfected cells
T2 sequence (P56719 1-460): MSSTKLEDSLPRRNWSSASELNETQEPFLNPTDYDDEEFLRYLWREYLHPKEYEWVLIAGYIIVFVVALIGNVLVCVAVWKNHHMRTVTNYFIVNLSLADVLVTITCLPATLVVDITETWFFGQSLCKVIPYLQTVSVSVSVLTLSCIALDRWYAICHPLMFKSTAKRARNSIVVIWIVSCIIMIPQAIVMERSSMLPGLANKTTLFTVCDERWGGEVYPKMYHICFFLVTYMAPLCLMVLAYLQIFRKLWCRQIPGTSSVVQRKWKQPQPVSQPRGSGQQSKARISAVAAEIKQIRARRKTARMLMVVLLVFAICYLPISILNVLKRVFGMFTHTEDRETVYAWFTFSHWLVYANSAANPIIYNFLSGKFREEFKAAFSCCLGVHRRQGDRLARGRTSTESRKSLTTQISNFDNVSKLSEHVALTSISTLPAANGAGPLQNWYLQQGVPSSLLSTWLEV
Excerpt: as §1, §2, §3, §4

rats [2] = conditions: cited from earlier work
rats [3] = conditions: cited from earlier work; remark: listed apart in the source

| Molecule | Ki (rat Orexin-1 receptor) | Ki (rat Orexin-2 receptor) | other results |
| --- | --- | --- | --- |
| orexin-A: ligand for the orexin-1 receptor; an agonist of the orexin receptors (QPLPDCCRQKTCSCRLYELLHGAGNHAAGILTL; ends and bridges not checked; cysteine pairing not given here; UniProt O43612 34-66, looked up) | – | – | increase of food intake over control rats receiving vehicle (freely-feeding rats): approximately four-fold; arousal (rats [1]): dose-related increase |
| Cc1nc(C(=O)N2CCCC[C@H]2Cc2cn3cccc(F)c3n2)c(-c2ccccc2)s1 [Example 13, 8-fluoro-2-({(2S)-1-[(2-methyl-5-phenyl-1,3-thiazol-4-yl)carbonyl]-2-piperidinyl}methyl)imidazo[1,2-a]pyridine] | 1 to 5.01 nM | 0.316 to 1 nM | – |
| Cc1nc2ccc(NC(=O)Nc3ccnc4cccnc34)cc2o1 [SB334867] | – | – | hedonic eating (rats [2]): potently reduced; high-fat pellet self-administration (rats [3]): attenuated |
| Cc1nc(C(=O)N2CCCC[C@H]2Cc2cn3cc(F)cc(C)c3n2)c(-c2ccccc2)s1 [Example 31, 6-fluoro-8-methyl-2-({(2S)-1-[(2-methyl-5-phenyl-1,3-thiazol-4-yl)carbonyl]-2-piperidinyl}methyl)imidazo[1,2-a]pyridine] | 1 to 5.01 nM | 0.316 to 1 nM | – |

Reference: US20090022670A1, “NOVEL COMPOUNDS” (priority 2007, published 2009)
